Laboratory results published in article PMC7562955 (Nature Communications, 2020).
≈ marks a conversion by molar mass, not a printed value. Like-named read-outs stand apart in the source and are kept apart here.

Columns and labels:
[1] = Solubility measurement in isotonic buffer; format: physicochemical; details: isotonic disodium hydrogen phosphate/citric acid buffer, 25 °C, aqueous buffer, kinetic from dmso stock; pH 7.4 buffer
Description: Compound was dissolved in dimethyl sulfoxide at 10 mM. A 1.75% disodium hydrogen phosphate aqueous solution and a 5.53% citric acid aqueous solution were mixed while monitoring with a pH meter to prepare an isotonic buffer solution having a pH of 7.4. The dimethyl sulfoxide solution and the isotonic buffer solution of pH 7.4 was mixed and shaken at 110 rpm for 90 min at 25 °C by a constant temperature incubator shaker. After standing for 16–20 h, the mixture was centrifuged to precipitate insoluble matter, and the supernatant was collected. Separately, standard solutions of the compound were prepared by dissolving the compound in a mixture of acetonitrile and water (1:1). The analytical sample and the standard solutions were measured by UHPLC-UV (Waters, USA). The degree of solubility was calculated by comparing the peak area of the analytical sample with standard solutions.

TLR7 = target: T1, TLR7 (Homo sapiens, UniProt Q9NYK1); test: Human TLR7 reporter gene inhibitory activity assay (NF-κB/SEAP HEK293); format: cell-based; set-up: host or cells: HEK293 (TLR7/NF-κB/SEAPorter); details: for IC50 / human TLR7 activity, reporter signal: R848 200 nM
T1 sequence (Q9NYK1 27-1049): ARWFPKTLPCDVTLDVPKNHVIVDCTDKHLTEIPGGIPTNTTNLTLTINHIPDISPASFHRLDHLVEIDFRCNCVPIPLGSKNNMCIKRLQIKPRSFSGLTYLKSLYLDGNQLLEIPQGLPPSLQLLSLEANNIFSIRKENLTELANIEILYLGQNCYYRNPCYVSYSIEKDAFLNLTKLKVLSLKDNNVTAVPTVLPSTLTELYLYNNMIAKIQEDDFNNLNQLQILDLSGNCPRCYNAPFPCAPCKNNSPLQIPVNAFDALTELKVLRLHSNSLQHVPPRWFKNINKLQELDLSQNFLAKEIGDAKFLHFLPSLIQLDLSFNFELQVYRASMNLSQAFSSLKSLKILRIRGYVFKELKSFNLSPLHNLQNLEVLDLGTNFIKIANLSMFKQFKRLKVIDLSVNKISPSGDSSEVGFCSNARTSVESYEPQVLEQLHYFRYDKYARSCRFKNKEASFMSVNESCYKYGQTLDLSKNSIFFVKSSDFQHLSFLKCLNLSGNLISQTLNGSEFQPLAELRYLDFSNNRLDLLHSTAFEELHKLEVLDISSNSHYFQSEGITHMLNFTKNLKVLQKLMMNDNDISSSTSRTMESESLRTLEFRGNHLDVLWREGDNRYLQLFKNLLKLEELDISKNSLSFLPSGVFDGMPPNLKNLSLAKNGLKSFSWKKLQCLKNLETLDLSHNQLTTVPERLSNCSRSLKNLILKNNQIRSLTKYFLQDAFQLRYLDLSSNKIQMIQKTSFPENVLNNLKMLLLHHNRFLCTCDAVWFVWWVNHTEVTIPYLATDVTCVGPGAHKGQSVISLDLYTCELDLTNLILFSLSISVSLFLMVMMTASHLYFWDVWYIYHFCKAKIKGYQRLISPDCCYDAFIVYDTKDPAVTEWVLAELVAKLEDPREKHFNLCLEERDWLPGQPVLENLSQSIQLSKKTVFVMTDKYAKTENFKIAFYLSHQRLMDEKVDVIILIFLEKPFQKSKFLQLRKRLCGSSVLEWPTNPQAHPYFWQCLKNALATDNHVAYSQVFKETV
Description: Compounds were dissolved in dimethyl sulfoxide. Before stimulation with compound, Human TLR7 reporter cell line (TLR7/NF-κB/SEAPorter^TM HEK293 cell, Novus Biological, USA), human TLR8 reporter cell line (TLR8/NF-κB/SEAPorter^TM HEK293 cell, Novus Biological), and human TLR9 reporter cell line (TLR9/NF-κB/SEAPorter^TM HEK293 cell, Novus Biological) were seeded in 96-well microtiter plate (AGC techno glass, Japan) at 5 × 10^4 cells/well in DMEM (GIBCO, United Kingdam) with 10 % fetal bovine serum (GIBCO), and 10 ug/ml Blastcidin S HCl (GIBCO) and incubated at 37 °C in 5% CO2. The plates were incubated over-night and then stimulated with various concentrations of compound. […] After 30 min, R848 (human TLR7/8 ligand, synthesized at Sumitomo Dainippon Pharma, Japan) or CpG2006 (human TLR9 ligand, Hokkaido System Science Co., Ltd., Japan) added to each well, wherein each final concentration were adjusted to 200 nM R848 (human TLR7), 30 μM R848 (human TLR8), or 500 nM CpG2006 (human TLR9). The plates were then incubated an additional 20 ± 1 h at 37 °C in 5% CO2 and then the secreted embryonic alkaline phosphatase (SEAP) activity was measured as activation of human TLR7, 8, and 9. The SEAP activity was evaluated as follows: pNPP (Invitrogen, USA) was added to the incubated sample (50 μl/well); after 15 min, 4 M sodium hydroxide solution (nacalai tesque, Japan) was added thereto (50 μl/well) to quench the reaction; and the absorbance of each sample was measured at 405 nm with microplate reader SpectraMax M4 (Molecular Devices, USA).

[2] = read-out: TLR7 inhibitory activity IC50

IC50 (TLR7; read-out: TLR7 inhibitory potency IC50) [nM]	Structure (SMILES)	solubility at 90 min [1] [µg/mL]	selectivity for TLR7 over TLR8 and TLR9 (TLR7)	IC50 (TLR7; [2]) [nM]	human TLR7 activity, reporter signal (TLR7; compound 0.0001 nM (as headed))	human TLR7 activity, reporter signal (TLR7; compound 0.001 nM (as headed))	human TLR7 activity, reporter signal (TLR7; compound 0.003 nM (as headed))	human TLR7 activity, reporter signal (TLR7; compound 0.01 nM (as headed))	human TLR7 activity, reporter signal (TLR7; compound 0.03 nM (as headed))	human TLR7 activity, reporter signal (TLR7; compound 0.1 nM (as headed))	human TLR7 activity, reporter signal (TLR7; compound 0.3 nM (as headed))	human TLR7 activity, reporter signal (TLR7; compound 1 nM (as headed))	human TLR7 activity, reporter signal (TLR7; compound 3 nM (as headed))	human TLR7 activity, reporter signal (TLR7; compound 10 nM (as headed))	human TLR7 activity, reporter signal (TLR7; compound 30 nM (as headed))	human TLR7 activity, reporter signal (TLR7; compound 100 nM (as headed))
–	CCOc1nc(N)c2nc(-c3cncc(F)c3)n(Cc3ccc(CN4C[C@@H]5C[C@H]4CN5C)cc3)c2n1 [Cpd-6]	> 150	high TLR7 selectivity	25	1.983	1.907	1.643	1.354	0.8446	0.3393	0.1771	0.006275	-0.01137	-0.02343	-0.03198	-0.04843
5000	CCCCOc1nc(N)c2nc(-c3cccnc3)n(Cc3ccccc3)c2n1 [Cpd-5]	0.3 (≈ 0.801 µM)	–	–	2.067	1.898	1.879	1.8207	1.853	1.8291	1.986	1.7924	1.5762	1.162	0.6856	0.7605
–	CCOc1nc(C)c2nc(-c3cncc(F)c3)n(Cc3ccc(CN4C[C@@H]5C[C@H]4CN5C)cc3)c2n1 [Cpd-7]	> 150	high TLR7 selectivity	15	1.983	1.718	1.528	1.179	0.5917	0.1271	0.01692	-0.02107	-0.03277	-0.02908	-0.03703	-0.01692
–	CCN(CCO)CCCC(C)Nc1ccnc2cc(Cl)ccc12 (stereo not drawn) [HCQ, hydroxychloroquine, reference compound]	–	–	–	1.977	–	–	1.7427	1.684	1.7194	1.681	1.5856	1.338	1.109	0.2449	0.0133
